pIC50: −log10 of the molar value. Converted amounts (≈) assume the structure as drawn. Like-named read-outs stand apart in the source and are kept apart here.
Key:
Kinetic solubility = type: physicochemical; conditions: kinetic from dmso stock, 100 mM pH 7.4 phosphate buffer, 1% DMSO, room temperature, read-out: Kinetics Solubility_PBS7.4
How it was run: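 Compounds diluted from 10 mM/5 mM DMSO stocks into 100 mM phosphate buffer pH 7.4 (1% DMSO final), shaken 2 h at room temperature, then centrifuged. Dissolved compound in supernatant quantified by LC-MS/MS against a standard curve.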

TYK2-JH2 domain = target: T1, TYK2-JH2 domain (Homo sapiens, UniProt P29597); experiment: Binding activity test for JH2 domain of TYK2 (Tb-antibody/tracer FRET)
T1 construct: JAK1-JH2 domain or TYK2-JH2 domain enzyme in assay buffer
T1 sequence (P29597 589-875 limits assumed): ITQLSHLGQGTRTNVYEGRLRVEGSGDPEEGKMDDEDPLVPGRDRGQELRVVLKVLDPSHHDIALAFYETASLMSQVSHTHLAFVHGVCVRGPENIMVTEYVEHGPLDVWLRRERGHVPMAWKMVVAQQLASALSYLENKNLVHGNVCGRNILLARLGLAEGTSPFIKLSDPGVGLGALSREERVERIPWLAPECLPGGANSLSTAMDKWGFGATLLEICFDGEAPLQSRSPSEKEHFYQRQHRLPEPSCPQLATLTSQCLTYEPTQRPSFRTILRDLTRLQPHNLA
How it was run: (§1)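 Competitive TR-FRET binding: compounds dispensed as an 11-point 3-fold dilution series, then Tb-labelled antibody and tracer added to the JH2 protein system. Incubated at 25°C, then overnight at 4°C; FRET signal read on Envision and IC50 (nM) derived.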

pSTAT1 = experiment: Phosphorylation inhibition of STAT in human whole blood (IFN-alpha stimulated, flow cytometry); type: cell-based; conditions: T-cell, 20 min, IFN-alpha stimulation 20 mins, CD3 T cells, read-out: pSTAT1 inhibition in hWB (IC50)
How it was run: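 Fresh human whole blood stimulated 20 min with human universal type I IFN-alpha, then fixed, permeabilised and stained for CD3 and pSTAT1 (Y701). pSTAT1 in T cells read by flow cytometry; IC50 from 4-parameter logistic fit.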

JAK1-JH2 domain = target: T2, JAK1-JH2 domain (Homo sapiens, UniProt P23458); experiment: Binding activity test for JH2 domain of JAK1 (Tb-antibody/tracer FRET)
T2 construct: JAK1-JH2 domain or TYK2-JH2 domain enzyme in assay buffer
T2 sequence (P23458 583-855 limits assumed): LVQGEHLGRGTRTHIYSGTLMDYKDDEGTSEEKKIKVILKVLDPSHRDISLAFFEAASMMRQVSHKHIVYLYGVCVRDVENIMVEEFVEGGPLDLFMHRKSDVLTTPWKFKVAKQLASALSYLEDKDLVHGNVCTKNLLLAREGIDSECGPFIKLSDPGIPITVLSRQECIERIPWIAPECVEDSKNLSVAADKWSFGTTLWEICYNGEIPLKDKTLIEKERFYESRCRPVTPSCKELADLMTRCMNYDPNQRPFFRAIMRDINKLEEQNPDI
How it was run: as §1

[1] = test system: Ba/F3-FL-TYK2-P760L cells; experiment: Anti-proliferative assay in engineered Ba/F3 cells (Cell-Titer Glo, 72 h); type: cell-based; conditions: Mus musculus, concentration that causes 50% growth inhibition, read-out: Baf3-FL-T2P760L
How it was run: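 Ba/F3 cells carrying Tel-dimerization/JAK kinase fusion, IL-3-independent, in RPMI-1640 + 10% FBS; 9-point 3-fold dilutions from 20 µM (0.1% DMSO) added after 24 h, 72 h at 37 °C. Viability by Cell-Titer Glo ATP luminescence; % inhibition versus DMSO cells, blank-corrected, giving IC50.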

Caco-2 cell permeability = type: in vitro ADME; conditions: human, Caco-2, 10.0 µM, no p-gp inhibitor
Description: Compounds permeability was evaluated using Caco-2 cell lines. HBSS buffer was used as transfer buffer. Appropriate dosing and receiver solutions were applied to the donor and receiver chambers to initiate the transport assay in apical to basolateral (A to B) or basolateral to apical (B to A) directions. Compounds were tested at 10.0 µM in the absence of p-gp inhibitor bidirectionally in duplicates. After incubation at 37°C for 90 mins, donor and receiver samples were analyzed by LC-MS/MS. The intestinal absorption potential was assessed using Papp value and efflux ratio.

[2] = phosphate buffer, pH 7.4, aqueous buffer
[3] = JH2 domain enzyme; 60 min at 25°C, then 4°C overnight; read-out: TYK2 JH2 Binding IC50
[4] = ratio of JAK1 JH2 to TYK2 JH2 binding IC50
[5] = JH2 domain enzyme; 60 min at 25°C, then 4°C overnight; read-out: JAK1 JH2 Binding IC50
[6] = BaF3, 72 h, 72 h compound treatment
[7] = read-out: Efflux Ratio: Papp(B-A)/Papp(A-B)

[2H]C([2H])([2H])NC(=O)c1cnc(NC(=O)C2CC2)cc1Nc1cnn2ccc([C@@H](O)C(F)(F)F)c(OC)c12 [Example 7B, (R)-6-(cyclopropanecarboxamido)-4-((4-methoxy-5-(2,2,2-trifluoro-1-hydroxyethyl)pyrazolo[1,5-a]pyridin-3-yl)amino)-N-(methyl-d3)nicotinamide]
solubility kinetic at 2 h (Kinetic solubility; [2]): 55.8 µM (≈ 26.9 µg/mL) | pIC50 (TYK2-JH2 domain; [3]): 9.28 | JAK1/TYK2 selectivity (TYK2-JH2 domain; [4]): 24.4 | pIC50 (pSTAT1): 6.00 | pIC50 (JAK1-JH2 domain; [5]): 7.89 | pIC50 [1, 6]: 6.65

[2H]C([2H])([2H])NC(=O)c1cnc(NC(=O)C2CC2)cc1Nc1cnn2ccc([C@H](O)C(F)(F)F)c(OC)c12 [Example 7A, (S)-6-(cyclopropanecarboxamido)-4-((4-methoxy-5-(2,2,2-trifluoro-1-hydroxyethyl)pyrazolo[1,5-a]pyridin-3-yl)amino)-N-(methyl-d3)nicotinamide]
solubility kinetic at 2 h (Kinetic solubility; [2]): 52.1 µM (≈ 25.1 µg/mL) | pIC50 (TYK2-JH2 domain; [3]): 10.01 | JAK1/TYK2 selectivity (TYK2-JH2 domain; [4]): 107.6 | pIC50 (pSTAT1): 7.51 | pIC50 (JAK1-JH2 domain; [5]): 7.98 | pIC50 [1, 6]: 8.27

[2H]C([2H])([2H])NC(=O)c1cnc(NC(=O)C2CC2)cc1Nc1nn(C)c2ccc([C@H](O)C(F)(F)F)c(OC)c12 [Example 49A, (S)-6-(cyclopropanecarboxamido)-4-((4-methoxy-1-methyl-5-(2,2,2-trifluoro-1-hydroxyethyl)-1H-indazol-3-yl)amino)-N-(methyl-d3)nicotinamide]
solubility kinetic at 2 h (Kinetic solubility; [2]): 45.5 µM (≈ 22.5 µg/mL) | Papp A→B at 90 min, 10 µM (Caco-2 cell permeability; 90 mins, A to B): 1.32 ×10⁻⁶ cm/s | Papp B→A at 90 min, 10 µM (Caco-2 cell permeability; 90 mins, B to A): 66.6 ×10⁻⁶ cm/s | efflux ratio at 90 min, 10 µM (Caco-2 cell permeability; [7]): 50.3 | pIC50 (TYK2-JH2 domain; [3]): 9.97 | JAK1/TYK2 selectivity (TYK2-JH2 domain; [4]): 49.3 | pIC50 (pSTAT1): 7.98 | pIC50 (JAK1-JH2 domain; [5]): 8.28 | pIC50 [1, 6]: 9.33

COC(=O)c1cnc(NC(=O)C2CC2)cc1Nc1nn(C)c2ccc([C@H](OC)C(F)(F)F)c(OC)c12 [Example 45B, Methyl (S)-6-(cyclopropanecarboxamido)-4-((4-methoxy-1-methyl-5-(2,2,2-trifluoro-1-methoxyethyl)-1H-indazol-3-yl)amino)nicotinate]
solubility kinetic at 2 h (Kinetic solubility; [2]): 9.37 µM (≈ 4.75 µg/mL) | Papp A→B at 90 min, 10 µM (Caco-2 cell permeability; 90 mins, A to B): 7.27 ×10⁻⁶ cm/s | Papp B→A at 90 min, 10 µM (Caco-2 cell permeability; 90 mins, B to A): 5.65 ×10⁻⁶ cm/s | efflux ratio at 90 min, 10 µM (Caco-2 cell permeability; [7]): 0.78 | pIC50 (TYK2-JH2 domain; [3]): 9.91 | JAK1/TYK2 selectivity (TYK2-JH2 domain; [4]): 197.30 | pIC50 (JAK1-JH2 domain; [5]): 7.61 | pIC50 [1, 6]: 8.60

[2H]C([2H])([2H])NC(=O)c1nnc(NC(=O)C2CC2)cc1Nc1cnn2ccc([C@H](O)C(F)(F)F)c(OC)c12 [Example 30, (S)-6-(cyclopropanecarboxamido)-4-((4-methoxy-5-(2,2,2-trifluoro-1-hydroxyethyl)pyrazolo[1,5-a]pyridin-3-yl)amino)-N-(methyl-d3)pyridazine-3-carboxamide]
solubility kinetic at 2 h (Kinetic solubility; [2]): 42 µM (≈ 20.2 µg/mL) | pIC50 (TYK2-JH2 domain; [3]): 10.06 | JAK1/TYK2 selectivity (TYK2-JH2 domain; [4]): 124.4 | pIC50 (pSTAT1): 7.28 | pIC50 (JAK1-JH2 domain; [5]): 7.96 | pIC50 [1, 6]: 8.10

COC(=O)c1cnc(NC(=O)[C@@H]2C[C@@H]2F)cc1Nc1nn(C)c2ccc(C(O)C(F)(F)F)c(OC)c12 (single isomer, unassigned) [Example 122A, Methyl 6-((1S,2S)-2-fluorocyclopropane-1-carboxamido)-4-((4-methoxy-1-methyl-5-((S*)-2,2,2-trifluoro-1-hydroxyethyl)-1H-indazol-3-yl)amino) nicotinate]
solubility kinetic at 2 h (Kinetic solubility; aqueous buffer): 10.3 µM (≈ 5.27 µg/mL) | Papp A→B at 1.5 h, 10 µM (Caco-2 cell permeability; 90 mins, A to B): 27.4 ×10⁻⁶ cm/s | Papp B→A at 1.5 h, 10 µM (Caco-2 cell permeability; 90 mins, B to A): 45.3 ×10⁻⁶ cm/s | efflux ratio at 1.5 h, 10 µM (Caco-2 cell permeability; [7]): 1.65 | JAK1/TYK2 selectivity (TYK2-JH2 domain; [4]): 216.29 | pIC50 (TYK2-JH2 domain; read-out: TYK2 JH2 Binding IC50; JH2 domain enzyme; 60 min at 25°C, then 4°C overnight): 10.14 | pIC50 (JAK1-JH2 domain; read-out: JAK1 JH2 Binding IC50; JH2 domain enzyme; 60 min at 25°C, then 4°C overnight): 7.81 | pIC50 ([1]; BaF3, 72 h compound treatment): 9.10

COC(=O)c1cnc(NC(=O)C2CC2)cc1Nc1nn(C)c2ccc([C@H](O)C(F)(F)F)c(OC)c12 [Example 48A, Methyl (S)-6-(cyclopropanecarboxamido)-4-((4-methoxy-1-methyl-5-(2,2,2-trifluoro-1-hydroxyethyl)-1H-indazol-3-yl)amino)nicotinate]
solubility kinetic at 2 h (Kinetic solubility; [2]): 6.98 µM (≈ 3.44 µg/mL) | Papp A→B at 90 min, 10 µM (Caco-2 cell permeability; 90 mins, A to B): 29.9 ×10⁻⁶ cm/s | Papp B→A at 90 min, 10 µM (Caco-2 cell permeability; 90 mins, B to A): 29 ×10⁻⁶ cm/s | efflux ratio at 90 min, 10 µM (Caco-2 cell permeability; [7]): 0.97 | pIC50 (TYK2-JH2 domain; [3]): 9.84 | JAK1/TYK2 selectivity (TYK2-JH2 domain; [4]): 158.89 | pIC50 (pSTAT1): 7.54 | pIC50 (JAK1-JH2 domain; [5]): 7.64 | pIC50 [1, 6]: 8.83

[2H]C([2H])([2H])NC(=O)c1cnc(NC(=O)C2CC2)cc1Nc1cnn2ccc([C@H](OC)C(F)(F)F)c(OC)c12 [Example 27, (S)-6-(cyclopropanecarboxamido)-4-((4-methoxy-5-(2,2,2-trifluoro-1-methoxyethyl)pyrazolo[1,5-a]pyridin-3-yl)amino)-N-(methyl-d3)nicotinamide]
solubility kinetic at 2 h (Kinetic solubility; [2]): 14.2 µM (≈ 7.06 µg/mL) | pIC50 (TYK2-JH2 domain; [3]): 10.19 | JAK1/TYK2 selectivity (TYK2-JH2 domain; [4]): 128.0 | pIC50 (pSTAT1): 7.29 | pIC50 (JAK1-JH2 domain; [5]): 8.09 | pIC50 [1, 6]: 8.07

[2H]C([2H])([2H])O[C@@H](c1ccc2c(c(Nc3cc(NC(=O)C4CC4)ncc3C(=O)OC)nn2C)c1OC)C(F)(F)F [Example 50B, Methyl (S)-6-(cyclopropanecarboxamido)-4-((4-methoxy-1-methyl-5-(2,2,2-trifluoro-1-(methoxy-d3)ethyl)-1H-indazol-3-yl)amino)nicotinate]
solubility kinetic at 2 h (Kinetic solubility; [2]): 7.23 µM (≈ 3.69 µg/mL) | pIC50 (TYK2-JH2 domain; [3]): 9.75 | JAK1/TYK2 selectivity (TYK2-JH2 domain; [4]): 162.94 | pIC50 (pSTAT1): 7.25 | pIC50 (JAK1-JH2 domain; [5]): 7.54 | pIC50 [1, 6]: 8.54

[2H]C([2H])([2H])NC(=O)c1cnc(Nc2ccn(C)n2)cc1Nc1cnn2ccc([C@H](O)C(F)(F)F)c(OC)c12 [Example 21, (S)-4-((4-methoxy-5-(2,2,2-trifluoro-1-hydroxyethyl)pyrazolo[1,5-a]pyridin-3-yl)amino)-N-(methyl-d3)-6-((1-methyl-1H-pyrazol-3-yl)amino)nicotinamide]
solubility kinetic at 2 h (Kinetic solubility; [2]): 57.2 µM (≈ 28.2 µg/mL) | Papp A→B at 90 min, 10 µM (Caco-2 cell permeability; 90 mins, A to B): 0.71 ×10⁻⁶ cm/s | Papp B→A at 90 min, 10 µM (Caco-2 cell permeability; 90 mins, B to A): 47.4 ×10⁻⁶ cm/s | efflux ratio at 90 min, 10 µM (Caco-2 cell permeability; [7]): 67 | pIC50 (TYK2-JH2 domain; [3]): 10.11 | JAK1/TYK2 selectivity (TYK2-JH2 domain; [4]): 142.7 | pIC50 (pSTAT1): 7.64 | pIC50 (JAK1-JH2 domain; [5]): 7.96 | pIC50 [1, 6]: 7.80

[2H]C([2H])([2H])NC(=O)c1cnc(NC(=O)C2CC2)cc1Nc1nn(C)c2ccc([C@H](OC([2H])([2H])[2H])C(F)(F)F)c(OC)c12 [Example 55A, (S)-6-(cyclopropanecarboxamido)-4-((4-methoxy-1-methyl-5-(2,2,2-trifluoro-1-(methoxy-d3)ethyl)-1H-indazol-3-yl)amino)-N-(methyl-d3)nicotinamide]
solubility kinetic at 2 h (Kinetic solubility; [2]): 7.78 µM (≈ 3.99 µg/mL) | pIC50 (TYK2-JH2 domain; [3]): 10.28 | JAK1/TYK2 selectivity (TYK2-JH2 domain; [4]): 48.9 | pIC50 (pSTAT1): 7.60 | pIC50 (JAK1-JH2 domain; [5]): 8.59 | pIC50 [1, 6]: 9.45

[2H]C([2H])([2H])NC(=O)c1cnc(Nc2cc(C)nc(C)n2)cc1Nc1cnn2ccc([C@H](O)C(F)(F)F)c(OC)c12 [Example 25, (S)-6-((2,6-Dimethylpyrimidin-4-yl)amino)-4-((4-methoxy-5-(2,2,2-trifluoro-1-hydroxyethyl)pyrazolo[1,5-a]pyridin-3-yl)amino)-N-(methyl-d3)nicotinamide]
solubility kinetic at 2 h (Kinetic solubility; [2]): 43 µM (≈ 22.3 µg/mL) | Papp A→B at 90 min, 10 µM (Caco-2 cell permeability; 90 mins, A to B): 2.57 ×10⁻⁶ cm/s | Papp B→A at 90 min, 10 µM (Caco-2 cell permeability; 90 mins, B to A): 62.3 ×10⁻⁶ cm/s | efflux ratio at 90 min, 10 µM (Caco-2 cell permeability; [7]): 24.2 | pIC50 (TYK2-JH2 domain; [3]): 10.17 | JAK1/TYK2 selectivity (TYK2-JH2 domain; [4]): 169.1 | pIC50 (pSTAT1): 7.51 | pIC50 (JAK1-JH2 domain; [5]): 7.94 | pIC50 [1, 6]: 8.30
